# Measured values reported in BindingDB's records for doi:10.1016/j.chembiol.2014.09.011 (Astrazeneca R&D, 2014).
# Columns and labels:
# Test in all cases: AMPD Enzymatic Activity Assay
# Conditions in all cases: pH 7.4
# AMP deaminase 1 [1] = molecular target: T1, AMP deaminase 1 (Homo sapiens, UniProt P23109)
# T1 sequence (P23109 whole entry): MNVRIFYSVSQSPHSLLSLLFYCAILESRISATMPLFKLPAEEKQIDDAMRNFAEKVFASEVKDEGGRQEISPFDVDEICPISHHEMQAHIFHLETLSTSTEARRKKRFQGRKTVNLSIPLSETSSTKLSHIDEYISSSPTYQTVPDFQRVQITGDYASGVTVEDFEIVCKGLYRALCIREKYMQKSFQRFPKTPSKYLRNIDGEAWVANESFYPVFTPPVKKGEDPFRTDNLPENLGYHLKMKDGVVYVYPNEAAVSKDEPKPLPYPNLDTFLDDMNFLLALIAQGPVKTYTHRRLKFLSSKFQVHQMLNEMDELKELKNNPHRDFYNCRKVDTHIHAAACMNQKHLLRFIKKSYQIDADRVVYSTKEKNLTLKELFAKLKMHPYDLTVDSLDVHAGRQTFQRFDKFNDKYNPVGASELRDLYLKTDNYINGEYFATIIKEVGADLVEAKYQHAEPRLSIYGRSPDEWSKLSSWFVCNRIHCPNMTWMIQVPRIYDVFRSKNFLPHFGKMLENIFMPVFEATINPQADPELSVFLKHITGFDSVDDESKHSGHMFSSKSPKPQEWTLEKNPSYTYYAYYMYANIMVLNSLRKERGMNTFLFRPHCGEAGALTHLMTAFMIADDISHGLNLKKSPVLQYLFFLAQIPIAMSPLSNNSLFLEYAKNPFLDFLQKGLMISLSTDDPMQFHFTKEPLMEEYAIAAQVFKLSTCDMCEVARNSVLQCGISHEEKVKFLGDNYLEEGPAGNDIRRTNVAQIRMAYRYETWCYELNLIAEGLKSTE
# Protocol: (§1) AMPD1 was added to buffer A (50 mM HEPES, 150 mM KCl, 5 mM MgCl2, and 0.5 mMglutathione [pH 7.4]) to a concentration of 10 nM. A substrate mix consistingof 2mMNADPH, 6mMa-ketoglutarate, 8mMAMP, and 15 U GDH was prepared in buffer A. Substrate mix ([…]) was added to the plate, followed by centrifugation and incubation for 1 hr. Detection was by absorbance at 340 nm following the conversion of NADPH to NADP+. Recombinant AMPD enzyme activity assays were performed in a 384-well format using the same conditions as described above, except the assay volume was […] and the AMP concentration for the AMPD2 assay was 8 mM. Different AMPD enzyme concentrations were used to have linear reactions: hAMPD1 (4 nM), hAMPD2 (38 nM), hAMPD3 (1 nM), rAMPD1 (116 nM), rAMPD2 (53 nM), rAMPD3 (31 nM), and mAMPD1 (816 nM).
# AMP deaminase 1 [2] = molecular target: T2, AMP deaminase 1 (Mus musculus, UniProt Q3V1D3)
# T2 sequence (Q3V1D3 whole entry): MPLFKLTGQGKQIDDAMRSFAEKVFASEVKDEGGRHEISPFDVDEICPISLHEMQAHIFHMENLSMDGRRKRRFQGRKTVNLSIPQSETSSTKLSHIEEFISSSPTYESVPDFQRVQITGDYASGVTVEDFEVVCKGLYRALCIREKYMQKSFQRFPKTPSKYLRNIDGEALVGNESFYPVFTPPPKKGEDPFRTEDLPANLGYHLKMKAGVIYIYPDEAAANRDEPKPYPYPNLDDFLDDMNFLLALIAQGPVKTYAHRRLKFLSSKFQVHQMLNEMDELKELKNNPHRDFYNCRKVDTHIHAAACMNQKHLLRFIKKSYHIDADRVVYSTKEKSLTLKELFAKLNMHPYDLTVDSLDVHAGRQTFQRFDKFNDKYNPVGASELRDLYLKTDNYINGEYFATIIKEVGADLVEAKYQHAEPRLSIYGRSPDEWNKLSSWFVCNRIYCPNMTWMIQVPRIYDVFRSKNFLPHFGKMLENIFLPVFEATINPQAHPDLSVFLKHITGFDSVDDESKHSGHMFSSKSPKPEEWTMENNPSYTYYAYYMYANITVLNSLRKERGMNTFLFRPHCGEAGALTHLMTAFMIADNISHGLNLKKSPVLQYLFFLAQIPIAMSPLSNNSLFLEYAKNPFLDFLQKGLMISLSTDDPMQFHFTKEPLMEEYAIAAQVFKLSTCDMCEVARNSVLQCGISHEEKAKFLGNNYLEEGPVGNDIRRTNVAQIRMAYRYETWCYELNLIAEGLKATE
# Protocol: as §1
# AMP deaminase 2 = molecular target: T3, AMP deaminase 2 (Rattus norvegicus, UniProt Q02356)
# T3 sequence (Q02356 whole entry): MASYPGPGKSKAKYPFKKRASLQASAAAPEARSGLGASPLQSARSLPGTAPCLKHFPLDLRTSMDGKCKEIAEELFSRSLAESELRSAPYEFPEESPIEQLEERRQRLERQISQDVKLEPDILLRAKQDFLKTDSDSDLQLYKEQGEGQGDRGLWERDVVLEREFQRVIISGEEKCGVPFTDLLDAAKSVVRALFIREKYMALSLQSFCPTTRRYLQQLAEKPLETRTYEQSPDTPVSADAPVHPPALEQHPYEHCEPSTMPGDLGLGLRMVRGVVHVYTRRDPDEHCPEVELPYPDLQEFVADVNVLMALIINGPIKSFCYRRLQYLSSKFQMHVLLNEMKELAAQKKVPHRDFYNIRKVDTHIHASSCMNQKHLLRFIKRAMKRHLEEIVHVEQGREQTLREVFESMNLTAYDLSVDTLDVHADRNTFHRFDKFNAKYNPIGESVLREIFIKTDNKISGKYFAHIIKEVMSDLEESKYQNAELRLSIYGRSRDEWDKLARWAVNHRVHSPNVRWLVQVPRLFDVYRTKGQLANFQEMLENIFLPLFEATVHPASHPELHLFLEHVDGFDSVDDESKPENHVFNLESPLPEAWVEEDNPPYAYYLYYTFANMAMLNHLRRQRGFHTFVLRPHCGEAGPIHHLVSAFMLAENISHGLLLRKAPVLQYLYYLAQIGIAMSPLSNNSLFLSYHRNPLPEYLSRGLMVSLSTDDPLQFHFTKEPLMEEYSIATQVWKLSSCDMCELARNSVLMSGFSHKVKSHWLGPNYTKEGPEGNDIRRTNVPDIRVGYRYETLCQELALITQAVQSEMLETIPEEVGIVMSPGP
# Protocol: as §1
smiles,measurement,setting,value
C[C@@H](NCc1ccc(-c2ccc(C(=O)O)cn2)cc1)c1cccc2ccncc12 [6-[4-({[(1R)-1-(isoquinolin-8-yl)ethyl]amino}methyl)phenyl]pyridine-3-carboxylic acid (Compound 2)],IC50,AMP deaminase 1 [1],9200 nM
same,IC50,AMP deaminase 1 [2],4500 nM
same,IC50,AMP deaminase 2,32000 nM
C[C@H](NCc1ccc(-c2ccc(C(=O)O)cn2)cc1)c1cccc2ccncc12 [6-[4-({[(1S)-1-(isoquinolin-8-yl)ethyl]amino}methyl)phenyl]pyridine-3-carboxylic acid (Compound 3)],IC50,AMP deaminase 1 [1],38 nM
same,IC50,AMP deaminase 1 [2],24 nM
same,IC50,AMP deaminase 2,570 nM
